For series [1], the system named is Phaedon cochleariae larvae. Kind of series: whole plant or invertebrate.
Another series deals with Spodoptera frugiperda. The experiment in a line: Spodoptera frugiperda - spray application. The format is in vivo. The conditions noted are these: for mortality at 20 g/ha: 20 g ai/ha. The protocol: To produce a suitable preparation of active compound, 1 part by weight of active compound is mixed with the stated amount of solvent and emulsifier, and the concentrate is diluted with emulsifier-containing water to the desired concentration. To produce a suitable preparation of a biological suspension the cells, viruses or spores are diluted with emulsifier-containing water to the desired concentration.
Cabbage (Brassica oleracea) leaf-discs are sprayed with a preparation of the active ingredient at the desired concentration. Once dry, the leaf discs are infested with larvae of the fall army worm (Spodoptera frugiperda).
After the specified period of time, mortality in % is determined. 100% means that all the caterpillars have been killed; 0% means that none of the caterpillars have been killed. The mortality values thus determined are recalculated using the Colby-formula.

Series [2] deals with Myzus persicae. The experiment in a line: whole plant or invertebrate. The conditions noted are these: in Brassica rapa, foliar.
Series [3] relates to Tetranychus urticae (OP-resistant). The experiment in a line: Tetranychus urticae - test (OP-resistant), French bean leaf discs. The format is in vivo. The conditions noted are these: for mortality at 0.16 g/ha: 0.16 g ai/ha; for mortality at 500 g/ha: 500 g ai/ha. On the procedure: To produce a suitable preparation of active compound, 1 part by weight of active compound is mixed with the stated amount of solvent and emulsifier, and the concentrate is diluted with emulsifier-containing water to the desired concentration. To produce a suitable preparation of a biological suspension the cells or spores are diluted with emulsifier-containing water to the desired concentration.
Leaf discs of French beans (Phaseolus vulgaris) infected with all instars of the Two-spotted spider mite (Tetranychus urticae), are sprayed with a preparation of the active ingredient at the desired concentration.
After the specified period of time mortality in % is determined. 100% means that all spider mites have been killed; 0% means that none of the spider mites have been killed.

In series [4] the test system is Phaedon cochleariae larvae.
In series [5] the test system is Myzus persicae.
The mark [6] stands for this setting: read-out: Mortality in % after 6^d.
Where [7] appears, read: Spodoptera frugiperda, 0.16 g ai/ha, read-out: Mortality in % after 6^d.
[8] abbreviates: read-out: Mortality in % after 2^d.
Where [9] appears, read: Tetranychus urticae, foliar, 0.8 g ai/ha, read-out: Mortality in % after 2^d.
Where [10] appears, read: read-out: Mortality in % after 1^d.
The mark [11] stands for this setting: Tetranychus urticae, foliar, read-out: Mortality in % after 2^d.
Setting [12] is: Spodoptera frugiperda, read-out: Mortality in % after 2^d.
Setting [13] is: Tetranychus urticae, foliar, 4 g ai/ha, read-out: Mortality in % after 2^d.

As usually defined, the mortality is the share of the test organisms that died.

Where two headings read alike, the source gives them in different places.

For the molecule `Cc1c(COC(=O)[C@@H]2[C@H](/C=C(\Cl)C(F)(F)F)C2(C)C)cccc1-c1ccccc1` (racemic) [Bifenthrin], the mortality at 0.8 g/ha in series [1] (setting [6]) worked out at 50%. Moreover, the mortality at 0.16 g/ha in the series with Spodoptera frugiperda (setting [7]) was 0%.
As to `CC1(C)[C@H](C(=O)O[C@H](C#N)c2cccc(Oc3ccccc3)c2)[C@@H]1/C=C(\Cl)C(F)(F)F` (racemic) [Lambda-Cyhalothrin, lambda-Cyhalothrin], the mortality at 0.16 g/ha in the series on Myzus persicae [2] (setting [6]) turned out to be 0%; in the series on Spodoptera frugiperda (setting [7]), 33%. Moreover, the mortality at 0.8 g/ha in series [1] (setting [8]) was 67%.
For the molecule `Cc1c(F)c(F)c(COC(=O)[C@@H]2[C@H](/C=C(\Cl)C(F)(F)F)C2(C)C)c(F)c1F` (racemic) [Tefluthrin], in series [3] (setting [9]), the mortality at 0.8 g/ha was determined as 0%. Also, in series [1] (setting [6]), the mortality at 20 g/ha stood at 50%.
As to `C/C(=N\C#N)N(C)Cc1ccc(Cl)nc1` [Acetamiprid], the mortality at 20 g/ha in series [1] (setting [6]) was determined as 33%.
With `CC1(C)[C@H](C(=O)O[C@H](C#N)c2cccc(Oc3ccccc3)c2)[C@@H]1/C=C\C(=O)OC(C(F)(F)F)C(F)(F)F` [Acrinathrin], the mortality at 0.8 g/ha with Myzus persicae [2] (setting [10]) is 80%.
Regarding `CC1(C)C(C=C(Cl)Cl)C1C(=O)OC(C#N)c1cccc(Oc2ccccc2)c1` (stereo not drawn) [Alpha-Cypermethrin, alpha-Cypermethrin], the mortality at 0.16 g/ha in series [3] (setting [11]) worked out at 0%. For the same molecule, the mortality at 4 g/ha in series [1] (setting [6]) was 0%.
`C/C=C(\C)C(=O)O[C@H]1C[C@@H](OC(C)=O)[C@@]2(C(=O)OC)CO[C@H]3[C@@H](O)[C@@](C)([C@]45O[C@@]4(C)[C@H]4C[C@@H]5O[C@@H]5OC=C[C@@]54O)[C@H]4[C@]1(CO[C@]4(O)C(=O)OC)[C@@H]32` [Azadirachtin]: the mortality at 100 g/ha in the series on Myzus persicae [2] (setting [6]) was determined as 0%; in series [3] (Tetranychus urticae, foliar, 100 g ai/ha, read-out: Mortality in % after 2^d), 0%.
In the case of `CC1(C)C(C=C(Cl)Cl)C1C(=O)OC(C#N)c1ccc(F)c(Oc2ccccc2)c1` (stereo not drawn) [Beta-Cyfluthrin, beta-Cyfluthrin], the “Mortality in % after 6^d” value with Spodoptera frugiperda (0.8 g ai/ha) was determined as 83%; in series [4] (0.8 g ai/ha), 50%.
Take `CC(C)N1C(=O)N(c2ccccc2)CS/C1=N\C(C)(C)C` [Buprofezin]: the mortality at 500 g/ha in series [3] (setting [11]) worked out at 0%.
With `CNC(=O)c1cc(Cl)cc(C)c1NC(=O)c1cc(Br)nn1-c1ncccc1Cl` [Chloranthraniliprole, Chlorantraniliprole], in the series with Myzus persicae [2] (setting [6]), the mortality at 4 g/ha came out at 80%. For the same molecule, in series [1] (setting [6]), the mortality at 0.8 g/ha is 33%.
On to `CCOCn1c(-c2ccc(Cl)cc2)c(C#N)c(Br)c1C(F)(F)F` [Chlorfenapyr], for which, in series [3] (setting [9]), the mortality at 0.8 g/ha turned out to be 0%.
Consider `CCOP(=S)(OCC)Oc1nc(Cl)c(Cl)cc1Cl` [Chlorpyrifos], for which the results for the mortality at 4 g/ha (in the series on Myzus persicae [2] (setting [10]); in series [3] (setting [11])) were 70% and 0%, respectively. For the same molecule, the mortality at 100 g/ha in the series with Spodoptera frugiperda (setting [12]) came out at 50%.
Regarding `CN/C(=N\[N+](=O)[O-])NCc1cnc(Cl)s1` [Clothianidin], the results for the mortality at 20 g/ha (in the series on Myzus persicae [2] (setting [10]); in series [1] (setting [6])) were 0% and 83%, respectively.
As for `CC1(C)C(C=C(Cl)Cl)C1C(=O)OC(C#N)c1cccc(Oc2ccccc2)c1` (stereo not drawn) [Cypermethrin], the mortality at 0.8 g/ha in the series with Spodoptera frugiperda (Spodoptera frugiperda, 0.8 g ai/ha, read-out: Mortality in % after 6^d) amounted to 67%.
In the case of `CC1(C)[C@H](C(=O)O[C@H](C#N)c2cccc(Oc3ccccc3)c2)[C@@H]1C=C(Br)Br` [Deltamethrin], in the series with Spodoptera frugiperda (Spodoptera frugiperda, 0.032 g ai/ha, read-out: Mortality in % after 6^d), the mortality at 0.032 g/ha was 0%.
Consider `O=C(NC(=O)c1c(F)cccc1F)Nc1ccc(Cl)cc1` [Diflubenzuron], for which the mortality at 4 g/ha in series [3] (setting [13]) amounted to 0%. In the series on Spodoptera frugiperda (Spodoptera frugiperda, 100 g ai/ha, read-out: Mortality in % after 2^d), the mortality at 100 g/ha was found to be 67%.
With `CN/C(=N/CC1CCOC1)N[N+](=O)[O-]` (stereo not drawn) [Dinotefuran], the mortality at 20 g/ha (with Myzus persicae [2] (setting [10]); in series [1] (setting [6])) was 0% each time.
In the case of `N#Cc1nn(-c2c(Cl)cc(C(F)(F)F)cc2Cl)c(N)c1[S+]([O-])C(F)(F)F` (stereo not drawn) [Fipronil], in series [3] (setting [9]), the mortality at 0.8 g/ha stood at 0%. Also, in series [1] (setting [8]), the mortality at 0.16 g/ha worked out at 0%.
As for `O=S(=O)(CCC(F)=C(F)F)c1ncc(Cl)s1` [Fluensulfone], the “Mortality in % after 2^d” value in series [3] (2000 g ai/ha) is listed as 0%.
As to `O=C(NC(=O)c1c(F)cccc1F)Nc1ccc(Oc2ccc(C(F)(F)F)cc2Cl)cc1F` [Flufenoxuron], the mortality at 0.8 g/ha in series [3] (setting [9]) stood at 0%. Further, the mortality at 20 g/ha in series [1] (setting [6]) turned out to be 0%.
With `O=C1C=C(N(Cc2ccc(Cl)nc2)CC(F)F)CO1` [Flupyradifurone], the results for the “Mortality in % after 2^d” value in series [3] (0.8 g ai/ha) and in series [4] (500 g ai/ha) were 0% and 50%, respectively. Also, the “Mortality in % after 1^d” value with Myzus persicae [5] (20 g ai/ha) came out at 70%.
As for `CC1(C)[C@H](C(=O)O[C@H](C#N)c2cccc(Oc3ccccc3)c2)[C@@H]1/C=C(\Cl)C(F)(F)F` [Gamma-Cyhalothrin, gamma-Cyhalothrin], in the series with Spodoptera frugiperda (0.16 g ai/ha), the “Mortality in % after 2^d” value amounted to 0%.
`O=[N+]([O-])NC1=NCCN1Cc1ccc(Cl)nc1` [Imidacloprid]: the mortality at 0.8 g/ha (with Myzus persicae [2] (setting [10]); in series [3] (setting [9])) was 0% throughout. In addition, the mortality at 20 g/ha in series [1] (setting [6]) turned out to be 0%.
`COC(=O)N(C(=O)N1CO[C@@]2(C(=O)OC)Cc3cc(Cl)ccc3C2=N1)c1ccc(OC(F)(F)F)cc1` [Indoxacarb]: the “Mortality in % after 6^d” value in the series on Spodoptera frugiperda (0.8 g ai/ha) stood at 50%.
Regarding `CCN(Cc1ccc(Cl)nc1)/C(=C/[N+](=O)[O-])NC` [Nitenpyram], the mortality at 0.8 g/ha in series [3] (setting [9]) amounted to 0%. In addition, the mortality at 20 g/ha in series [1] (setting [6]) was found to be 0%.
Consider `CC1=NNC(=O)N(/N=C/c2cccnc2)C1` [Pymetrozine], for which the mortality at 4 g/ha in the series on Myzus persicae [2] (setting [6]) was 0%.
With `CC(=O)N1C(=O)N(NCc2cccnc2)Cc2cc(C(F)(C(F)(F)F)C(F)(F)F)ccc21` [Pyrifluquinazone, Pyrifluquinazon], in series [3] (0.8 g ai/ha), the “Mortality in % after 2^d” value is reported as 0%.
With `CC(c1ccc(C(F)(F)F)nc1)S(C)(=O)=NC#N` (stereo not drawn) [Sulfoxaflor], the mortality at 0.16 g/ha (in the series on Myzus persicae [2] (setting [10]); in series [3] (setting [11])) was 0% in each case. In addition, in series [1] (setting [6]), the mortality at 4 g/ha worked out at 0%.
For the molecule `CCc1nn(C)c(C(=O)NCc2ccc(C(C)(C)C)cc2)c1Cl` [Tebufenpyrad], the mortality at 4 g/ha in series [3] (setting [13]) was determined as 0%.
As for `N#C/N=C1\SCCN1Cc1ccc(Cl)nc1` [Thiacloprid], the mortality at 20 g/ha in series [1] (setting [6]) turned out to be 33%; in the series with Spodoptera frugiperda (Spodoptera frugiperda, read-out: Mortality in % after 6^d), 0%.
`CN1COCN(Cc2cnc(Cl)s2)/C1=N\[N+](=O)[O-]` [Thiamethoxam]: the mortality at 20 g/ha in series [1] (setting [8]) turned out to be 67%.
In the case of `CS/C(C)=N\OC(=O)N(C)SN(C)C(=O)O/N=C(\C)SC` [Thiodicarb], the mortality at 4 g/ha in series [3] (setting [13]) was found to be 0%. In addition, in series [1] (setting [6]), the mortality at 100 g/ha was 0%.
Take `Cc1ccc(C(C)C)c(O)c1` [Thymol]: the mortality at 500 g/ha in series [3] (Tetranychus urticae, foliar, read-out: Mortality in % after 6^d) came to 0%.
Take `O=C(NC(=O)c1ccccc1Cl)Nc1ccc(OC(F)(F)F)cc1` [Triflumuron]: the mortality at 20 g/ha (in series [1] (setting [6]); in the series with Spodoptera frugiperda (setting [12])) was 0% in each case.
On to Abamectin, for which the “Mortality in % after 2^d” value in series [3] (0.032 g ai/ha) was 0%.
For the molecule Emamectin benzoate [Emamectin-benzoate], the “Mortality in % after 2^d” value in series [4] (0.8 g ai/ha) was found to be 67%.
Take Lepimectin: the “Mortality in % after 2^d” value in series [4] (4 g ai/ha) was determined as 50%.
As to Milbemectin, the figures for the “Mortality in % after 6^d” value with Myzus persicae [5] (4 g ai/ha) and in the series with Spodoptera frugiperda (0.8 g ai/ha) were 70% and 0%, respectively.
Turning to Spinetoram, in series [3] (0.8 g ai/ha), the “Mortality in % after 2^d” value was 0%.
With Spinosad, the “Mortality in % after 2^d” value in series [3] (0.8 g ai/ha) amounted to 0%.

These data come from patent US20150189882A1, “ACTIVE INGREDIENT COMBINATIONS HAVING INSECTICIDAL AND ACARICIDAL PROPERTIES” (priority 2011, published 2015).
